{
  "source": "patent US9040459B2",
  "about": "“Herbicidal compositions comprising aminopyralid and propanil” (Dow AgroSciences, LLC., priority 2012, dated 2015)",
  "assay_in_all_cases": "Postemergence herbicidal activity under field conditions, visual weed control",
  "assay_type_in_all_cases": "in vivo",
  "settings_in_all_cases": "post-emergence field trial",
  "key": {"[1]": {"system": "Digitaria horizontalis (Jamaican crabgrass, DIGHO)", "method": "(§1) These trials were conducted under field conditions in Espinal, Colombia. Trial sites were located in commercially grown fields of common rice (Oryza sativa). The rice crop was grown using normal cultural practices for fertilization, seeding, and maintenance to ensure good growth of the crop and the weeds. The trials were conducted using normal research methodology. Trial plots were 2 meters (m) wide by 5 m long. All treatments were applied using a randomized complete block trial design with 4 replications per treatment. The trial sites had naturally occurring populations of weeds. The weed spectrum included, but was not limited to, Cyperus iria L. (rice flatsedge, CYPIR), Digitaria horizontalis (Jamaican crabgrass, DIGHO), Eleusine indica L. Gaertn. (goosegrass, ELEIN), Portulaca oleracea L. (common purslane, POROL) and Phyllanthus niruri L. (gripeweed, PYLNI). The plots were treated with a postemergence foliar application 15 to 20 days after emergence of the rice.\n(§2) Treatments consisted of tank mixes of aminopyralid triisopropanolammonium salt (MILESTONE 240SL) and a commercially available formulation of propanil herbicide (STAM 480EC). The application volume was 200 liters per hectare (L/ha) of water. All applications were made using precision gas hand sprayers with a 3 m boom using flat fan 8002 nozzles to broadcast the treatments over the top of the rice and weeds.\n(§3) The treated plots and control plots were rated blind at various intervals after application. Ratings were based on Percent (%) Visual weed control, where 0 corresponds to no injury and 100 corresponds to complete kill.\n(§4) Colby's equation was used to determine the herbicidal effects expected from the mixtures (Colby, S. R. Calculation of the synergistic and antagonistic response of herbicide combinations. Weeds 1967 15, 20-22).\n(§5) The following equation was used to calculate the expected activity of mixtures containing two active ingredients, A and B: Expected=A+B−(A×B/100)\n(§6) A=observed efficacy of active ingredient A at the same concentration as used in the mixture;\n(§7) B=observed efficacy of active ingredient B at the same concentration as used in the mixture."}, "[2]": {"system": "Eleusine indica L. Gaertn. (goosegrass, ELEIN)", "method": "as §1, §2, §3, §4, §5, §6, §7"}, "[3]": {"system": "Phyllanthus niruri L. (gripeweed, PYLNI)", "method": "as §1, §2, §3, §4, §5, §6, §7"}, "[4]": {"system": "Cyperus iria L. (rice flatsedge, CYPIR)", "method": "as §1, §2, §3, §4, §5, §6, §7"}, "[5]": {"system": "Portulaca oleracea L. (common purslane, POROL)", "method": "as §1, §2, §3, §4, §5, §6, §7"}},
  "data": [
    {"smiles": "Nc1cc(Cl)nc(C(=O)O)c1Cl", "note": "[Aminopyralid, 4-amino-3,6-dichloro-2-pyridinecarboxylic acid]", "values": [
      {"measurement": "Visual Weed Control (%) DIGHO 8 DAA Obs", "setting": "[1]; aminopyralid 8 g ae/ha alone", "result": 0, "unit": "%"},
      {"measurement": "Visual Weed Control (%) DIGHO 8 DAA Obs", "setting": "[1]; aminopyralid 16 g ae/ha alone", "result": 0, "unit": "%"},
      {"measurement": "Visual Weed Control (%) ELEIN 8 DAA Obs", "setting": "[2]; aminopyralid 4 g ae/ha alone", "result": 0, "unit": "%"},
      {"measurement": "Visual Weed Control (%) ELEIN 8 DAA Obs", "setting": "[2]; aminopyralid 8 g ae/ha alone", "result": 0, "unit": "%"},
      {"measurement": "Visual Weed Control (%) ELEIN 8 DAA Obs", "setting": "[2]; aminopyralid 16 g ae/ha alone", "result": 0, "unit": "%"},
      {"measurement": "Visual Weed Control (%) PYLNI 8 DAA Obs", "setting": "[3]; aminopyralid 4 g ae/ha alone", "result": 0, "unit": "%"},
      {"measurement": "Visual Weed Control (%) PYLNI 8 DAA Obs", "setting": "[3]; aminopyralid 8 g ae/ha alone", "result": 3, "unit": "%"},
      {"measurement": "Visual Weed Control (%) PYLNI 8 DAA Obs", "setting": "[3]; aminopyralid 16 g ae/ha alone", "result": 3, "unit": "%"},
      {"measurement": "Visual Weed Control (%) CYPIR 15 DAA Obs", "setting": "[4]; aminopyralid 4 g ae/ha alone", "result": 4.5, "unit": "%"},
      {"measurement": "Visual Weed Control (%) CYPIR 32 DAA Obs", "setting": "[4]; aminopyralid 4 g ae/ha alone", "result": 0, "unit": "%"},
      {"measurement": "Visual Weed Control (%) CYPIR 32 DAA Obs", "setting": "[4]; aminopyralid 8 g ae/ha alone", "result": 10, "unit": "%"},
      {"measurement": "Visual Weed Control (%) CYPIR 15 DAA Obs", "setting": "[4]; aminopyralid 16 g ae/ha alone", "result": 15, "unit": "%"},
      {"measurement": "Visual Weed Control (%) CYPIR 32 DAA Obs", "setting": "[4]; aminopyralid 16 g ae/ha alone", "result": 10, "unit": "%"},
      {"measurement": "Visual Weed Control (%) POROL 8 DAA Obs", "setting": "[5]; aminopyralid 4 g ae/ha alone", "result": 36, "unit": "%"},
      {"measurement": "Visual Weed Control (%) POROL 8 DAA Obs", "setting": "[5]; aminopyralid 8 g ae/ha alone", "result": 68, "unit": "%"},
      {"measurement": "Visual Weed Control (%) POROL 8 DAA Obs", "setting": "[5]; aminopyralid 16 g ae/ha alone", "result": 93, "unit": "%"}
    ]},
    {"smiles": "CCC(=O)Nc1ccc(Cl)c(Cl)c1", "note": "[Propanil, N-(3,4-dichloro-phenyl)propanamide]", "values": [
      {"measurement": "Visual Weed Control (%) DIGHO 8 DAA Obs", "setting": "[1]; propanil 480 g ai/ha alone", "result": 51, "unit": "%"},
      {"measurement": "Visual Weed Control (%) ELEIN 8 DAA Obs", "setting": "[2]; propanil 480 g ai/ha alone", "result": 48, "unit": "%"},
      {"measurement": "Visual Weed Control (%) PYLNI 8 DAA Obs", "setting": "[3]; propanil 480 g ai/ha alone", "result": 45, "unit": "%"},
      {"measurement": "Visual Weed Control (%) CYPIR 15 DAA Obs", "setting": "[4]; propanil 480 g ai/ha alone", "result": 35, "unit": "%"},
      {"measurement": "Visual Weed Control (%) CYPIR 32 DAA Obs", "setting": "[4]; propanil 480 g ai/ha alone", "result": 20, "unit": "%"},
      {"measurement": "Visual Weed Control (%) CYPIR 32 DAA Obs", "setting": "[4]; propanil 960 g ai/ha alone", "result": 58, "unit": "%"},
      {"measurement": "Visual Weed Control (%) POROL 8 DAA Obs", "setting": "[5]; propanil 480 g ai/ha alone", "result": 49, "unit": "%"}
    ]}
  ]
}
